Legend:
[1] = cited from earlier work
essential tremor = conditions: cited from earlier work; for Efficacy for treating essential tremors in clinical trials: adverse effects led to patient discontinuance
[2] = Within-participant escalating dose trial Part B: safety and tolerability (TEAEs); assay type: in vivo, human
[3] = Phase 1 single and multiple ascending doses of formulation 3: safety and tolerability; assay type: in vivo, human; conditions: single 60 mg, 6 healthy volunteers, no titration
Protocol: This was a 2-part, Phase 1 double blind, placebo controlled trial to assess the safety, tolerability, pharmacokinetics, and pharmacodynamics (including the KSS, the KDT, the SQSQ and 24-hour EEG recordings), of single, ascending (Part A: 20, 40, and 60 mg) and multiple, ascending (Part B: 20 and 40 mg for 8 days) doses of the 20 mg tablet (formulation 3) in healthy participants. […] Variability in Cmax and AUC increased with increasing dose following a single oral dose of the 20 mg tablet formulation (formulation 3) (FIG. 16).
Adverse events for the doses of 20 and 40 mg were transient and occurred at a rate similar to placebo. The following TEAEs were observed, all of which were mild to moderate: […]

[4] = Within-participant escalating dose trial Part A: safety and tolerability (TEAEs); assay type: in vivo, human
Protocol: (§1) In Part A, an open label trial was conducted.

[5] = Within-participant escalating dose trial Part A (5, 10, 20 mg): plasma pharmacokinetics; assay type: in vivo, human
Protocol: as §1

[6] = Within-participant escalating dose trial Part B (20-120 mg titration): pharmacokinetics; conditions: titrated dosing schedule
Protocol: A trial was conducted to study the safety, tolerability, pharmacokinetics and pharmacodynamics of the compound of formula (I) in healthy participants. Each participant completed 3 study periods: Screening, Treatment period (12 or 31 days), and Safety follow-up.
In Part B, a randomized controlled trial was conducted. […] Patients were allowed to receive the compound of formula (I) daily at each of 60 mg, 80 mg, and 100 mg dose levels for an extended period of up to 2 days.
Patients were discharged on D33 after all study assessments were completed and scheduled for Safety Follow-up on Day 36 (±1 day) via telephone call. Pharmacokinetics of the compound of formula (I) was evaluated by performing LC/MS quantification of levels of the compound in plasma and urine. […] Phamacokinetic parameters determined for the compound of formula (I) include, but are not limited to, AUCt, AUCinf, AUCtau, Cmax, tmax, t1/2, CL/F and Vd/F.

[7] = 28-day essential tremor study (WO 2020/072773)

## CC(C)c1ccc(CC(=O)N[C@H](C)c2ccc(OCC(F)(F)F)cn2)cc1 [CX-8998]
[1]; Papapetropoulos et al. 2019, 2021
  Titrated daily dose reached: 20 mg
[1]; single doses, WO 2020/072773
  Highest non-titrated dose safely administered to patients: 16 mg
Essential tremor; [7]
  Discontinuation due to intolerability of adverse events: 17%
  Discontinuation rate: 23%

## CC(C)(C)NC(=O)CN1CCC(CNC(=O)c2cc(F)cc(Cl)c2)CC1 [compound of formula (I), N-((1-(2-(tert-butylamino)-2-oxoethyl)piperidin-4-yl)methyl)-3-chloro-5-fluorobenzamide]
[2]; human, in vivo, 31 days
  Participants with at least one TEAE: 12 (100%)^ n (%)
  TEAE: Cardiac Disorders: 4 (33.3%) n (%)
  TEAE: Chest discomfort: 2 (16.7%) n (%)
  TEAE: Dizziness: 3 (25.0%) n (%)
  TEAE: General Disorders and Administration Site Conditions: 6 (50.0%) n (%)
  TEAE: Headache: 2 (16.7%) n (%)
  TEAE: Intoxicated sensation: 2 (16.7%) n (%)
  TEAE: Medical device site dermatitis: 3 (25.0%) n (%)
  TEAE: Nervous System Disorders: 5 (41.7%) n (%)
  TEAE: Palpitations: 2 (16.7%) n (%)
[2]; in vivo
  SAEs and severe AEs: no SAEs and no severe AEs
[2]; titration 20 to 120 mg per day, no maximum tolerated dosage identified
  Dose levels well-tolerated with a titrated dosing schedule: ≤ 120 mg per day
[3]
  Tolerability: not tolerated
[4]; 5 mg (N = 8)
  Participants with at least one TEAE: 5 (62.5%) n (%)
  TEAE: Dry eye: 1 (12.5%) n (%)
  TEAE: Eye disorders: 2 (25.0%) n (%)
  TEAE: General Disorders and Administration Site Conditions: 3 (37.5%) n (%)
  TEAE: Headache: 2 (25.0%) n (%)
  TEAE: Lethargy: 1 (12.5%) n (%)
  TEAE: Medical device site dermatitis: 1 (12.5%) n (%)
  TEAE: Nervous System Disorders: 2 (25.0%) n (%)
  TEAE: Vessel puncture site thrombosis: 1 (12.5%) n (%)
[4]; 10 mg (N = 8)
  Participants with at least one TEAE: 5 (62.5%) n (%)
  TEAE: Dry eye: 2 (25.0%) n (%)
  TEAE: Eye disorders: 2 (25.0%) n (%)
  TEAE: General Disorders and Administration Site Conditions: 3 (37.5%) n (%)
  TEAE: Headache: 0 n (%)
  TEAE: Lethargy: 0 n (%)
  TEAE: Medical device site dermatitis: 2 (25.0%) n (%)
  TEAE: Nervous System Disorders: 0 n (%)
  TEAE: Vessel puncture site thrombosis: 1 (12.5%) n (%)
[4]; 20 mg (N = 8)
  Participants with at least one TEAE: 3 (37.5%) n (%)
  TEAE: Dry eye: 0 n (%)
  TEAE: Eye disorders: 0 n (%)
  TEAE: General Disorders and Administration Site Conditions: 1 (12.5%) n (%)
  TEAE: Headache: 1 (12.5%) n (%)
  TEAE: Medical device site dermatitis: 0 n (%)
  TEAE: Nervous System Disorders: 1 (12.5%) n (%)
  TEAE: Vessel puncture site thrombosis: 0 n (%)
[4]; Overall (N = 8)
  Participants with at least one TEAE: 7 (87.5%) n (%)
  TEAE: Dry eye: 3 (37.5%) n (%)
  TEAE: Eye disorders: 3 (37.5%) n (%)
  TEAE: Headache: 3 (37.5%) n (%)
  TEAE: Lethargy: 2 (25.0%) n (%)
  TEAE: Medical device site dermatitis: 3 (37.5%) n (%)
  TEAE: Nervous System Disorders: 3 (37.5%) n (%)
  TEAE: Vessel puncture site thrombosis: 2 (25.0%) n (%)
[5]; 5 mg dose, 24 hour sampling period
  Time the compound remained quantifiable in plasma: ≥ 24 h
[5]; single 5 mg dose, healthy volunteers
  Time by which plasma concentrations were quantifiable: ≤ 0.50 h
[6]
  Increase of Cmax and AUC24 above values of a lower dosage not tolerated without titration: 2-3 fold

## CC1(C)O[C@@H]2[C@@H](CO[C@@]3(COS(N)(=O)=O)OC(C)(C)O[C@@H]23)O1 [topiramate]
Essential tremor
  Efficacy for treating essential tremors in clinical trials: effective

## NS(=O)(=O)Cc1noc2ccccc12 [zonisamide]
Essential tremor
  Efficacy for treating essential tremors in clinical trials: effective

— US12697331B2, “Methods of use of T-type calcium channel modulators” (PRAXIS PRECISION MEDICINES, INC., priority 2020, dated 2026)
